Measured values as given in publication PMC9686653, “Bioengineered Nisin A Derivatives Display Enhanced Activity against Clinical Neonatal Pathogens” (Antibiotics, 2022).
Values after ≈ are worked out from the molar mass of the structure shown. “Also recorded” adds a separate entry of the source. Where two headings read alike, the source gives them in different places. Marks after values point to notes of the source that are not given here.

What was measured:
S. agalactiae strains = assay: Broth MIC assay, summary over isolates; type: cell-based, Streptococcus agalactiae
Method: (§1) MIC determinations were carried out in triplicate in 96-well microtiter plates (Sarstedt, Newton, NC, USA) as previously described. Initially, 200µL of 1% bovine serum albumin (BSA) (Sigma-Aldrich, St. Louis, MO, USA) (in PBS) was added to the plates which were incubated at 37 °C for 30 min. The solution was removed, plates were washed with 200 µL PBS and then air dried in a laminar flow hood. Target strains (Streptococcus agalactiae, Staphylococcus capitis and Lactococcus lactis) were grown overnight in suitable media under appropriate conditions and were subsequently sub-cultured into fresh broth and allowed to grow to an optical density of ~0.5 (OD600). The culture was then diluted to a final concentration of 10^5 CFU mL^−1 in a volume of 1 mL. The peptides were resuspended in appropriate media to a stock concentration of […] (S. agalactiae and S. capitis strains) and […] (L. lactis strains). Nisin A and nisin derivatives were adjusted to a starting concentration of 15 µM (S. agalactiae and S. capitis strains) or 5 µM (L. lactis strains). […] An aliquot of 100 µL of peptides and or antibiotics were added to the first well, mixed and then 2-fold serial dilutions of each peptide were made in TSBYE broth. Then, 100 µL of target strain was added to each test well, and the plates were incubated at 30 °C or 37 °C for 16 h. The MIC was read as the lowest peptide concentration causing inhibition of visible growth. Experiments were performed in triplicate.

S. capitis BA06 = assay: Broth MIC assay; type: cell-based, Staphylococcus capitis
Method: as §1

S. agalactiae CIT 85 = assay: Broth MIC assay; type: cell-based, Streptococcus agalactiae; conditions: for MIC: broth microdilution in TSBYE, 10^5 CFU/mL, 16 h, 37 °C, average of three independent biological repeats
Method: as §1

S. capitis AV80 [1] = assay: Time-kill curve analysis; type: cell-based, Staphylococcus capitis; conditions: nisin peptides […] (1/4 MIC), ampicillin 3.75 µg/mL (1/4 MIC); re-growth after 6 h
Method: The means and standard deviations of three independent determinations are presented.
During incubation, 100µL of each sample was taken at 0, 2, 4, 6 and 24 h. Cell growth was assessed by performing viable cell counts by diluting cultures in PBS solution and enumeration on TSBYE plates. Synergism was defined as ≥2 log10 CFU/mL reduction with the combination of antimicrobials relative to either antimicrobial alone after 24 h. A 1–2 log10 reduction in CFU/mL was defined as an additive effect and an increase or decrease of <1 log10 was defined as an indifferent effect. An antagonistic effect was defined as >2 log10 increase in CFU/mL after 24 h [28]. Experiments were performed in triplicate.

[2] = tested on: clinical isolates of S. agalactiae (n = 5) and S. capitis (n = 5); assay: Deferred antagonism agar-based assay; type: cell-based, Streptococcus agalactiae, Staphylococcus capitis; conditions: pathogenic indicators, n = 10; listed as nisin PV
Method: All plates were supplemented with sub-inhibitory concentration (10 µg/L) of nisin in the form of nisaplin to ensure induction of the nisin mutants.
Site-saturation mutagenesis of three codons, including threonine, lysine and methionine, at positions 2, 12 and 17 of the nisA gene, was carried out as described previously. Briefly, pDF23 (pCI372-PV) was used as a template and oligonucleotides, NisT2deg-FOR and REV, NisK12deg-FOR and REV and Nis17deg-FOR and REV, containing an NNK codon potentially encoding for all twenty standard amino acids. Deferred antagonism agar-based assays were employed to assess the bioactivity of the nisin derivatives (PV, K12X-PV, T2X-PV, and M17X-PV) produced by each strain. Briefly, fresh overnight cultures of each L. lactis test culture was replicated on GM17/TSBYE agar plates containing 0.1% nisaplin using a 96-pin replicator (Boekel, Feasterville, PA, USA) and incubated overnight at 30 °C before being exposed to ultraviolet radiation for 45 min. The plates were then overlayed with GM17/TYSBYE agar (0.75% agar) and seeded (0.5% inoculum) with either Lactococcus lactis MG1614 (NSR-), the nisin resistance protein-expressing indicator strain L. lactis MG1614 pNP40 (NSR+) or TSBYE agar seeded with Staphylococcus capitis (NSR+) or Streptococcus agalactiae (NSR+) isolates. […]

S. capitis AY41 = assay: microbe, parasite or virus in culture; type: cell-based, Staphylococcus capitis
Method: as §1

[3] = tested on: nisin resistance protein (NSR); conditions: cited from earlier work
S. capitis strains = assay: Broth MIC assay, summary over isolates; type: cell-based, Staphylococcus capitis; conditions: some strains of S. capitis; purified peptides
Method: as §1, with “Then, 100 µL of target strain was added to each test well, and the plates were incubated at 30 °C or 37 °C for 16 h.” left out, “Experiments were performed in triplicate.” left out

S. agalactiae CIT 87 = assay: Broth MIC assay; type: cell-based, Streptococcus agalactiae; conditions: broth microdilution in TSBYE, 10^5 CFU/mL, 16 h, 37 °C, average of three independent biological repeats
Method: as §1

S. agalactiae CIT 67 = assay: Broth MIC assay; type: cell-based, Streptococcus agalactiae; conditions: broth microdilution in TSBYE, 10^5 CFU/mL, 16 h, 37 °C, average of three independent biological repeats
Method: as §1

S. agalactiae CIT 364 = assay: Broth MIC assay; type: cell-based, Streptococcus agalactiae; conditions: broth microdilution in TSBYE, 10^5 CFU/mL, 16 h, 37 °C, average of three independent biological repeats
Method: as §1

S. agalactiae CIT 239 = assay: Broth MIC assay; type: cell-based, Streptococcus agalactiae; conditions: broth microdilution in TSBYE, 10^5 CFU/mL, 16 h, 37 °C, average of three independent biological repeats
Method: as §1

S. capitis BD01 = assay: Broth MIC assay; type: cell-based, Staphylococcus capitis
Method: as §1

S. capitis AV80 [4] = assay: Broth MIC assay; type: cell-based; conditions: Staphylococcus capitis, AV80, 16 h
Method: as §1

S. capitis AR18 = assay: Broth MIC assay; type: cell-based; conditions: Staphylococcus capitis, AR18, 16 h
Method: as §1

[5] = broth microdilution in TSBYE, 10^5 CFU/mL, 16 h, 37 °C, average of three independent biological repeats

For `C=C(NC(=O)[C@@H](NC(=O)[C@H](Cc1c[nH]cn1)NC(=O)[C@@H](NC(=O)[C@@H]1CCCN1C(=O)[C@@H]1CS[C@@H](C)[C@H]2NC(=O)[C@H](C)NC(=O)[C@H](NC(=O)[C@H](CCCCN)NC(=O)[C@H](CCSC)NC(=O)[C@H](CC(N)=O)NC(=O)[C@@H]3CS[C@@H](C)[C@@H](NC(=O)[C@H](CCCCN)NC(=O)[C@@H]4CS[C@@H](C)[C@@H](NC(=O)[C@@H]5CSC[C@@H](NC(=O)/C(=C/C)NC(=O)[C@@H](N)[C@@H](C)CC)C(=O)N[C@@H]([C@@H](C)CC)C(=O)NC(=C)C(=O)N[C@@H](CC(C)C)C(=O)N5)C(=O)N5CCC[C@H]5C(=O)NCC(=O)N4)C(=O)NCC(=O)N[C@@H](C)C(=O)N[C@@H](CC(C)C)C(=O)N[C@@H](CCSC)C(=O)NCC(=O)N3)[C@H](C)SC[C@H](NC2=O)C(=O)N[C@@H](Cc2c[nH]cn2)C(=O)N1)C(C)C)C(C)C)C(=O)N[C@@H](CCCCN)C(=O)O` [PV], the “fold increase in potency compared to nisin A” value (from here on “fold increase in potency”) (S. agalactiae strains; four of the five S. agalactiae strains, from MIC) was 2 fold, the “fold increase in potency” value (S. capitis BA06; from MIC) was 2 fold and the “fold decrease in potency compared to nisin A” value (S. agalactiae CIT 85; from MIC) was 2 fold. The “time-kill outcome of single treatments” value (S. capitis AV80 [1]) was “inhibited bacterial growth over 4 h”, the “bioactivity (zone of inhibition) of the producing strain” value [2] was “improved antimicrobial activity against all strains tested; also recorded: greatest bioactivity against the majority of pathogenic indicators” and the MIC (S. capitis AY41; 16 h) was 6 * µg/mL. For the same compound, the “fold increase in potency” value (S. capitis AY41; from MIC) was 4 fold, the “susceptibility to proteolytic cleavage by NSR” value [3] was “resist proteolytic cleavage by NSR” and the “fold more active compared to nisin A” value (S. capitis strains) was 2–4 fold.
With `CC1(C)S[C@@H]2[C@H](NC(=O)[C@H](N)c3ccccc3)C(=O)N2[C@H]1C(=O)O` [Ampicillin, ampicillin] the MIC (S. agalactiae strains; Streptococcus agalactiae, read-out: MIC values over S. agalactiae strains, span over the isolates the sentence refers to (three, four or all five)) was 0.78 to 1.56 µg/mL (≈ 2.23 to 4.46 µM), the MIC (S. agalactiae CIT 85; Streptococcus agalactiae, CIT85, read-out: MIC) was 0.097 µg/mL (≈ 0.278 µM) and the MIC (S. agalactiae CIT 87; Streptococcus agalactiae, CIT87, read-out: MIC) was 0.78 µg/mL (≈ 2.23 µM). It also gave an MIC (S. agalactiae CIT 67; Streptococcus agalactiae, CIT67, read-out: MIC) of 1.56 µg/mL (≈ 4.46 µM), an MIC (S. agalactiae CIT 364; Streptococcus agalactiae, CIT364, read-out: MIC) of 0.78 µg/mL (≈ 2.23 µM) and an MIC (S. agalactiae CIT 239; Streptococcus agalactiae, CIT239, read-out: MIC) of 0.097 µg/mL (≈ 0.278 µM).
For penicillin, the MIC (S. capitis BD01; [5]) was 6.25 µg/mL, the MIC (S. agalactiae CIT 85) was 0.012 µg/mL and the MIC (S. agalactiae CIT 87) was 0.02 µg/mL. For the same compound, the MIC (S. agalactiae CIT 67) was 0.04 µg/mL, the MIC (S. agalactiae CIT 364) was 0.02 µg/mL and the MIC (S. agalactiae CIT 239) was 0.02 µg/mL. For the same compound, the MIC (S. capitis AY41; [5]) was 0.39 µg/mL.
For `CN[C@H](CC(C)C)C(=O)N[C@H]1C(=O)N[C@@H](CC(N)=O)C(=O)N[C@H]2C(=O)N[C@H]3C(=O)N[C@H](C(=O)N[C@H](C(=O)O)c4cc(O)cc(O)c4-c4cc3ccc4O)[C@H](O)c3ccc(c(Cl)c3)Oc3cc2cc(c3O[C@@H]2O[C@H](CO)[C@@H](O)[C@H](O)[C@H]2O[C@H]2C[C@](C)(N)[C@H](O)[C@H](C)O2)Oc2ccc(cc2Cl)[C@H]1O` [Vancomycin, vancomycin], the MIC (S. capitis AV80 [4]) was 3.13 µg/mL (≈ 2.16 µM), the MIC (S. capitis AR18) was 1.56 µg/mL (≈ 1.08 µM) and the MIC (S. capitis BD01; Staphylococcus capitis, BD01, 16 h) was 3.13 µg/mL (≈ 2.16 µM). The MIC (S. capitis BA06; Staphylococcus capitis, BA06, 16 h) was 1.56 µg/mL (≈ 1.08 µM) and the MIC (S. capitis AY41; Staphylococcus capitis, AY41, 16 h) was 1.56 µg/mL (≈ 1.08 µM).
